Numbered stars: 1 amine (or outer) side, 2 acyl side, 3 side chain; on linkers, the order of the positions; unused ones are H or OH. Bridge positions count the residues as written; N and C are the ends. Square brackets hold non-standard residues; d marks the D form. Peptide text beside a SMILES is read from it. * marks the point of attachment. Phe(3,4-(OMe)2) = COc1ccc(C[C@H](N)C(=O)O)cc1OC; Phe(3-CF3) = N[C@@H](Cc1cccc(C(F)(F)F)c1)C(=O)O; Ala(morpholin-4-yl) = N[C@@H](CN1CCOCC1)C(=O)O; Phe(4-COOH) = N[C@@H](Cc1ccc(C(=O)O)cc1)C(=O)O; Bip = N[C@@H](Cc1ccc(-c2ccccc2)cc1)C(=O)O; Phe(3-CN) = N#Cc1cccc(C[C@H](N)C(=O)O)c1; Phe(3-OMe) = COc1cccc(C[C@H](N)C(=O)O)c1; Phe(3-Me) = Cc1cccc(C[C@H](N)C(=O)O)c1; γGlu = O=C(O)[C@H](CCC(=O)[*:2])N[*:1]; NH(CH2)12COOH = O=C(O)CCCCCCCCCCCCN*; Val(3-OH) = CC(C)(O)[C@H](N)C(=O)O; Aha = [N-]=[N+]=NCC[C@H](N)C(=O)O; 4Pal = N[C@@H](Cc1ccncc1)C(=O)O; Cha = N[C@@H](CC1CCCCC1)C(=O)O; 3Abz = Nc1cccc(C(=O)O)c1; Carboxymethyl = O=C(O)C*; Orn = NCCC[C@H](N)C(=O)O; Pra = C#CC[C@H](N)C(=O)O; Aun = NCCCCCCCCCCC(=O)O; Dab = NCC[C@H](N)C(=O)O; Dap = NC[C@H](N)C(=O)O; AEEA = NCCOCCOCC(=O)O
Molecular target: T1, PD-1/PD-L1 interaction (PE-labeled human PD-L1-Ig binding to Jurkat cell line over-expressing human PD-1) (Homo sapiens, UniProt Q15116)
T1 construct: expressed in transfected cells; host or cells: Jurkat
T1 sequence (Q15116 25-288): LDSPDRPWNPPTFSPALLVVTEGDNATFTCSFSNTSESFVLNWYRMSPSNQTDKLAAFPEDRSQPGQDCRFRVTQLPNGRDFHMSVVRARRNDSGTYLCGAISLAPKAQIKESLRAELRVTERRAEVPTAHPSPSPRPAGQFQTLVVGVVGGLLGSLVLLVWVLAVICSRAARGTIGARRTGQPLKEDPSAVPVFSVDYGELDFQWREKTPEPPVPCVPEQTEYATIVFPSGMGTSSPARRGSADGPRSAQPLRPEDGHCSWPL
Assay: Jurkat-PD-1 Cell Binding High-Content Screening Assay (CBA)
Assay type: cell-based
Conditions: Jurkat cell line over-expressing human PD-1; PE-labeled PD-L1-Ig 20 nM final; read-out: Jurkat hPD1-PDL1 IC50
Outline: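 Binding of fluorescent PD-L1-Ig (20 nM final) to Jurkat-PD-1 cells was measured by automated imaging after 1 h, following a 2 h compound pre-treatment at 37° C.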

SMILES | IC50 [nM]
COc1ccc(C[C@@H]2NC(=O)[C@H](Cc3cccc(C)c3)NC(=O)[C@H](CC(=O)O)NC(=O)[C@H](Cc3ccc(OCC(=O)O)cc3)NC(=O)[C@H](Cc3ccncc3)NC(=O)CSC[C@@H](C(=O)N[C@@H](CCN)C(=O)N[C@@H](CCN=[N+]=[N-])C(=O)NCCCCCCCCCCC(=O)O)NC(=O)[C@H](CO)NC(=O)[C@H](C(C)(C)O)NC(=O)[C@H](CC3CCCCC3)NC(=O)[C@H](CCN)NC(=O)[C@@H](CC(C)C)NC(=O)[C@H](CCCN)NC(=O)[C@H](Cc3ccc(OCC(=O)O)cc3)NC(=O)[C@H](Cc3ccc(-c4ccccc4)cc3)NC2=O)cc1 [Compound 1280] ({CH2CO}-[4Pal]Y(Carboxymethyl)D[Phe(3-Me)]Y(Me)[Bip]Y(Carboxymethyl)[Orn][dL][Dab][Cha][Val(3-OH)]SC[Dab][Aha][Aun]-OH; thioether N-14) | 243
CC(C)C[C@@H]1NC(=O)[C@H](Cc2c[nH]c3ccccc23)NC(=O)[C@H](CC(=O)O)NC(=O)[C@H](Cc2ccncc2)NC(=O)[C@H](Cc2ccc(OCC(=O)O)cc2)NC(=O)CSC[C@@H](C(=O)Nc2cccc(C(=O)NCCCCCCCCCCC(=O)O)c2)NC(=O)[C@H](CN)NC(=O)[C@H](C(C)C)NC(=O)[C@H](CC2CCCCC2)NC(=O)[C@H](CCN)NC(=O)[C@@H](CC(C)C)NC(=O)[C@H](CCCN)NC(=O)[C@H](C(C)C)NC(=O)[C@H](Cc2ccc(-c3ccccc3)cc2)NC1=O [Compound 1282] ({CH2CO}-Y(Carboxymethyl)[4Pal]DWL[Bip]V[Orn][dL][Dab][Cha]V[Dap]C[3Abz][Aun]-OH; thioether N-14) | 631
COc1ccc(C[C@@H]2NC(=O)[C@H](CC(=O)O)NC(=O)[C@H](Cc3ccc(OCC(=O)O)cc3)NC(=O)[C@H](CN)NC(=O)CSC[C@@H](C(=O)N[C@@H](CCN)C(=O)NCCOCCOCC(=O)NCCCCCCCCCCC(=O)O)NC(=O)[C@H](CCCN)NC(=O)[C@H](C(C)C)NC(=O)[C@H](CC3CCCCC3)NC(=O)[C@H](CCN)NC(=O)[C@@H](CC(C)C)NC(=O)[C@H](CCCN)NC(=O)[C@H](Cc3ccc(O)cc3)NC(=O)[C@H](Cc3ccc(-c4ccccc4)cc3)NC(=O)[C@H](C(C)C)NC2=O)cc1OC [Compound 1283] ({CH2CO}-[Dap]Y(Carboxymethyl)D[Phe(3,4-(OMe)2)]V[Bip]Y[Orn][dL][Dab][Cha]V[Orn]C[Dab][AEEA][Aun]-OH; thioether N-14) | 731
CC(C)C[C@H]1NC(=O)[C@H](CCCN)NC(=O)[C@H](Cc2ccc(O)cc2)NC(=O)[C@H](Cc2ccc(-c3ccccc3)cc2)NC(=O)[C@H](C(C)C)NC(=O)[C@H](Cc2c[nH]c3ccccc23)NC(=O)[C@H](CC(=O)O)NC(=O)[C@H](Cc2ccc(OCC(=O)O)cc2)NC(=O)[C@H](CN)NC(=O)CSC[C@@H](C(=O)N[C@@H](CCN)C(=O)NCCOCCOCC(=O)NCCCCCCCCCCC(=O)O)NC(=O)[C@H](CCCN)NC(=O)[C@H](C(C)C)NC(=O)[C@H](CC2CCCCC2)NC(=O)[C@H](CCN)NC1=O [Compound 1290] ({CH2CO}-[Dap]Y(Carboxymethyl)DWV[Bip]Y[Orn][dL][Dab][Cha]V[Orn]C[Dab][AEEA][Aun]-OH; thioether N-14) | 12.5
CC(C)C[C@H]1NC(=O)[C@H](CCCN)NC(=O)[C@H](Cc2ccc(O)cc2)NC(=O)[C@H](Cc2ccc(-c3ccccc3)cc2)NC(=O)[C@H](C(C)C)NC(=O)[C@H](Cc2cccc(C#N)c2)NC(=O)[C@H](CC(=O)O)NC(=O)[C@H](Cc2ccc(OCC(=O)O)cc2)NC(=O)[C@H](CN)NC(=O)CSC[C@@H](C(=O)N[C@@H](CCN)C(=O)NCCOCCOCC(=O)NCCCCCCCCCCC(=O)O)NC(=O)[C@H](CCCN)NC(=O)[C@H](C(C)C)NC(=O)[C@H](CC2CCCCC2)NC(=O)[C@H](CCN)NC1=O [Compound 1291] ({CH2CO}-[Dap]Y(Carboxymethyl)D[Phe(3-CN)]V[Bip]Y[Orn][dL][Dab][Cha]V[Orn]C[Dab][AEEA][Aun]-OH; thioether N-14) | 14.7

Now those with a lower IC50, led by results:

IC50 [nM] | SMILES
9 | C#CC[C@H](NC(=O)[C@H](CCN)NC(=O)[C@@H]1CSCC(=O)N[C@@H](CN2CCOCC2)C(=O)N[C@@H](Cc2ccc(OCC(=O)O)cc2)C(=O)N[C@@H](CC(=O)O)C(=O)N[C@@H](Cc2cccc(C)c2)C(=O)N[C@@H](Cc2ccc(OCC(=O)O)cc2)C(=O)N[C@@H](Cc2ccc(-c3ccccc3)cc2)C(=O)N[C@@H](Cc2ccc(OCC(=O)O)cc2)C(=O)N[C@@H](CCCN)C(=O)N[C@H](CC(C)C)C(=O)N[C@@H](CCN)C(=O)N[C@@H](CC2CCCCC2)C(=O)N[C@@H](C(C)(C)O)C(=O)N[C@@H](CO)C(=O)N1)C(=O)NCCCCCCCCCCC(=O)O [Compound 1279] ({CH2CO}-[Ala(morpholin-4-yl)]Y(Carboxymethyl)D[Phe(3-Me)]Y(Carboxymethyl)[Bip]Y(Carboxymethyl)[Orn][dL][Dab][Cha][Val(3-OH)]SC[Dab][Pra][Aun]-OH; thioether N-14)
4.7 | Cc1cccc(C[C@@H]2NC(=O)[C@H](CC(=O)O)NC(=O)[C@H](Cc3ccc(OCC(=O)O)cc3)NC(=O)[C@H](CN3CCOCC3)NC(=O)CSC[C@@H](C(=O)N[C@@H](CCN)C(=O)N[C@@H](CCN=[N+]=[N-])C(=O)NCCCCCCCCCCC(=O)O)NC(=O)[C@H](CO)NC(=O)[C@H](C(C)(C)O)NC(=O)[C@H](CC3CCCCC3)NC(=O)[C@H](CCN)NC(=O)[C@@H](CC(C)C)NC(=O)[C@H](CCCN)NC(=O)[C@H](Cc3ccc(OCC(=O)O)cc3)NC(=O)[C@H](Cc3ccc(-c4ccccc4)cc3)NC(=O)[C@H](Cc3ccc(OCC(=O)O)cc3)NC2=O)c1 [Compound 1281] ({CH2CO}-[Ala(morpholin-4-yl)]Y(Carboxymethyl)D[Phe(3-Me)]Y(Carboxymethyl)[Bip]Y(Carboxymethyl)[Orn][dL][Dab][Cha][Val(3-OH)]SC[Dab][Aha][Aun]-OH; thioether N-14)
6.4 | Cc1cccc(C[C@@H]2NC(=O)[C@H](CC(=O)O)NC(=O)[C@H](Cc3ccc(OCC(=O)O)cc3)NC(=O)[C@H](CCN)NC(=O)CSC[C@@H](C(=O)N[C@@H](CCN)C(=O)NCCOCCOCC(=O)N[C@@H](CC(=O)O)C(=O)NCCOCCOCC(=O)N[C@@H](CCC(=O)NCC(=O)NCCCCCCCCCCCCC(=O)O)C(=O)O)NC(=O)[C@H](Cc3cnc[nH]3)NC(=O)[C@H](C(C)(C)O)NC(=O)[C@H](CC3CCCCC3)NC(=O)[C@H](CCN)NC(=O)[C@@H](CC(C)C)NC(=O)[C@H](CCCN)NC(=O)[C@H](Cc3ccc(C(=O)O)cc3)NC(=O)[C@H](Cc3ccc(-c4ccccc4)cc3)NC(=O)[C@H](Cc3ccc(C(=O)O)cc3)NC2=O)c1 [Compound 1285] ({CH2CO}-[Dab]Y(Carboxymethyl)D[Phe(3-Me)][Phe(4-COOH)][Bip][Phe(4-COOH)][Orn][dL][Dab][Cha][Val(3-OH)]HC[Dab][AEEA]D[AEEA][γGlu]G-{NH(CH2)12COOH}; thioether N-14)
5.6 | C#CC[C@H](NC(=O)[C@H](CCN)NC(=O)[C@@H]1CSCC(=O)N[C@@H](CN2CCOCC2)C(=O)N[C@@H](Cc2ccc(OCC(=O)O)cc2)C(=O)N[C@@H](CC(=O)O)C(=O)N[C@@H](Cc2cccc(C)c2)C(=O)N[C@@H](Cc2ccc(C(=O)O)cc2)C(=O)N[C@@H](Cc2ccc(-c3ccccc3)cc2)C(=O)N[C@@H](Cc2ccc(C(=O)O)cc2)C(=O)N[C@@H](CCCN)C(=O)N[C@H](CC(C)C)C(=O)N[C@@H](CCN)C(=O)N[C@@H](CC2CCCCC2)C(=O)N[C@@H](C(C)(C)O)C(=O)N[C@@H](CO)C(=O)N1)C(=O)NCCCCCCCCCCC(=O)O [Compound 1286] ({CH2CO}-[Ala(morpholin-4-yl)]Y(Carboxymethyl)D[Phe(3-Me)][Phe(4-COOH)][Bip][Phe(4-COOH)][Orn][dL][Dab][Cha][Val(3-OH)]SC[Dab][Pra][Aun]-OH; thioether N-14)
8.2 | CC(C)C[C@H]1NC(=O)[C@H](CCCN)NC(=O)[C@H](Cc2ccc(O)cc2)NC(=O)[C@H](Cc2ccc(-c3ccccc3)cc2)NC(=O)[C@H](Cc2ccc(OCC(=O)O)cc2)NC(=O)[C@H](Cc2cccc(C(F)(F)F)c2)NC(=O)[C@H](CC(=O)O)NC(=O)[C@H](Cc2ccc(OCC(=O)O)cc2)NC(=O)[C@H](CN)NC(=O)CSC[C@@H](C(=O)N[C@@H](CCN)C(=O)NCCOCCOCC(=O)NCCCCCCCCCCC(=O)O)NC(=O)[C@H](CCCN)NC(=O)[C@H](C(C)C)NC(=O)[C@H](CC2CCCCC2)NC(=O)[C@H](CCN)NC1=O [Compound 1287] ({CH2CO}-[Dap]Y(Carboxymethyl)D[Phe(3-CF3)]Y(Carboxymethyl)[Bip]Y[Orn][dL][Dab][Cha]V[Orn]C[Dab][AEEA][Aun]-OH; thioether N-14)
10.3 | CC(C)C[C@H]1NC(=O)[C@H](CCCN)NC(=O)[C@H](Cc2ccc(O)cc2)NC(=O)[C@H](Cc2ccc(-c3ccccc3)cc2)NC(=O)[C@H](C(C)C)NC(=O)[C@H](Cc2cccc(C(F)(F)F)c2)NC(=O)[C@H](CC(=O)O)NC(=O)[C@H](Cc2ccc(OCC(=O)O)cc2)NC(=O)[C@H](CN)NC(=O)CSC[C@@H](C(=O)N[C@@H](CCN)C(=O)NCCOCCOCC(=O)NCCCCCCCCCCC(=O)O)NC(=O)[C@H](CCCN)NC(=O)[C@H](C(C)C)NC(=O)[C@H](CC2CCCCC2)NC(=O)[C@H](CCN)NC1=O [Compound 1288] ({CH2CO}-[Dap]Y(Carboxymethyl)D[Phe(3-CF3)]V[Bip]Y[Orn][dL][Dab][Cha]V[Orn]C[Dab][AEEA][Aun]-OH; thioether N-14)
10.9 | COc1cccc(C[C@@H]2NC(=O)[C@H](CC(=O)O)NC(=O)[C@H](Cc3ccc(OCC(=O)O)cc3)NC(=O)[C@H](CN)NC(=O)CSC[C@@H](C(=O)N[C@@H](CCN)C(=O)NCCOCCOCC(=O)NCCCCCCCCCCC(=O)O)NC(=O)[C@H](CCCN)NC(=O)[C@H](C(C)C)NC(=O)[C@H](CC3CCCCC3)NC(=O)[C@H](CCN)NC(=O)[C@@H](CC(C)C)NC(=O)[C@H](CCCN)NC(=O)[C@H](Cc3ccc(O)cc3)NC(=O)[C@H](Cc3ccc(-c4ccccc4)cc3)NC(=O)[C@H](C(C)C)NC2=O)c1 [Compound 1289] ({CH2CO}-[Dap]Y(Carboxymethyl)D[Phe(3-OMe)]V[Bip]Y[Orn][dL][Dab][Cha]V[Orn]C[Dab][AEEA][Aun]-OH; thioether N-14)

From US20260022142A1, “MACROCYCLIC IMMUNOMODULATORS” (Bristol-Myers Squibb Company, priority 2022, published 2026)
